# According to paper PMC8571521, “^19F-NMR reveals substrate specificity of CYP121A1 in Mycobacterium tuberculosis” (The Journal of Biological Chemistry, 2021):
# What was measured:
# CYP121A1 [1] = biological target: T1, CYP121A1 (Mycobacterium tuberculosis, UniProt P9WPP7, S171C); format: binding
# T1 construct: gene cyp121
# CYP121A1 [2] = biological target: T2, CYP121A1 (Mycobacterium tuberculosis, UniProt P9WPP7, I166A/S171C/I180A); format: binding
# T2 construct: gene cyp121
smiles,measurement,setting,value
c1c[nH]cn1 [imidazole],19F-NMR titration (25-200 mM) with stepwise Soret shift,CYP121A1 [1],changes in the NMR spectra correlated closely with a stepwise shift in the Soret band of the protein
same,19F-NMR titration with absorption (Soret) readout,CYP121A1 [2],"in the I166A_I180A mutant, we observed rapid saturation for both of the NMR and wavelength absorption outputs"
